Drawing on US20170334899A1, “AMINO-SUBSTITUTED ISOTHIAZOLES” (Bayer Pharma Aktiengesellschaft, priority 2014, published 2017), this text covers IC50 for 23 compounds.

For experiment [1], the system named is human cervical tumor cell line HeLa (ATCC CCL-2). In words: SAC-Formation - Paclitaxel-Induced Assay. It counts as cell-based. To be noted: Homo sapiens, HeLa, 24 h, HeLa cells, paclitaxel 0.05 μM, test range 0.005 μM-20 μM, read-out: IC50 [mol/l] SAC-Formation - Paclitaxel-Induced Assay. The gist of the method:
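HeLa cells incubated overnight at 37° C, then given paclitaxel (0.05 μM final) plus test compound (0.005–20 μM, 0.5% DMSO) together for 24 h at 37° C. Fixed cells stained for phospho-histone H3 Ser10 (mitotic cells) and Hoechst 33342 (cell count); imaging-derived mitotic index fitted by four-parameter Hill equation.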

For experiment [2], the system named is HeLa. The experiment in a line: Proliferation assay (crystal violet), HeLa. It counts as cell-based. To be noted: Homo sapiens, HeLa, 96 h, HeLa cells; 4 days incubation; crystal violet staining; read-out: IC50 inhibition of proliferation, HeLa. A digest of the protocol:
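Seed 1000–5000 cells/well, 10% FCS; 24 h later replace medium and add compound (0.001–10 μM, 0.5% DMSO); incubate 4 d; glutaraldehyde fix, 0.1% crystal violet pH 3.0, elute with 10% acetic acid; A595; 4-parameter IC50.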

Take `Cc1nsc(Nc2cnc(C(F)(F)F)cn2)c1C(=O)Nc1ccc(OCCCNCC(F)(F)F)nc1` [Example 292, 3-methyl-N-(6-{3-[(2,2,2-trifluoroethyl)amino]propoxy}pyridin-3-yl)-5-{[5-(trifluoromethyl)pyrazin-2-yl]amino}-1,2-thiazole-4-carboxamide]: the IC50 in experiment [1] came to 0.42 µM; in experiment [2], 1.8 µM.
The like results for `Cc1nsc(Nc2cnc(C(F)(F)F)cn2)c1C(=O)Nc1ccc(OCCCNCC(F)F)nc1` [Example 293, N-(6-{3-[(2,2-difluoroethyl)amino]propoxy}pyridin-3-yl)-3-methyl-5-{[5-(trifluoromethyl)pyrazin-2-yl]amino}-1,2-thiazole-4-carboxamide] were, in that order, 4 µM and 5.3 µM.
For `Cc1nsc(Nc2cnc(C(F)(F)F)cn2)c1C(=O)Nc1ccc(OCCCNCCC(F)(F)F)nc1` [Example 294, 3-methyl-5-{[5-(trifluoromethyl)pyrazin-2-yl]amino}-N-(6-{3-[(3,3,3-trifluoropropyl)amino]propoxy}pyridin-3-yl)-1,2-thiazole-4-carboxamide] the same measures were 0.56 µM and 1.3 µM.
Take `Cc1nsc(Nc2cnc(C(F)(F)F)cn2)c1C(=O)Nc1ccc(OC2CCN(CCF)C2)nc1` (stereo not shown) [Example 295, N-(6-{[1-(2-fluoroethyl)pyrrolidin-3-yl]oxy}pyridin-3-yl)-3-methyl-5-{[5-(trifluoromethyl)pyrazin-2-yl]amino}-1,2-thiazole-4-carboxamide]: the figures for the IC50 in experiment [1] and in experiment [2] were 1.2 µM and 0.38 µM, respectively.
For `Cc1nsc(Nc2cnc(C(F)(F)F)cn2)c1C(=O)Nc1ccc(OC2CCN(CC(F)F)C2)nc1` (stereo not shown) [Example 296, N-(6-{[1-(2,2-difluoroethyl)pyrrolidin-3-yl]oxy}pyridin-3-yl)-3-methyl-5-{[5-(trifluoromethyl)pyrazin-2-yl]amino}-1,2-thiazole-4-carboxamide] the same measures were 0.3 µM and 0.6 µM.
For `Cc1nsc(Nc2cnc(C(F)(F)F)cn2)c1C(=O)Nc1ccc(OC2CCN(CC(F)(F)F)C2)nc1` (stereo not shown) [Example 297, 3-methyl-N-(6-{[1-(2,2,2-trifluoroethyl)pyrrolidin-3-yl]oxy}pyridin-3-yl)-5-{[5-(trifluoromethyl)pyrazin-2-yl]amino}-1,2-thiazole-4-carboxamide] the same measures were 0.056 µM and 0.35 µM.
On to `Cc1nsc(Nc2cnc(C(F)(F)F)cn2)c1C(=O)Nc1ccc(OC2CCN(CCC(F)(F)F)C2)nc1` (stereo not shown) [Example 298, 3-methyl-5-{[5-(trifluoromethyl)pyrazin-2-yl]amino}-N-(6-{[1-(3,3,3-trifluoropropyl)pyrrolidin-3-yl]oxy}pyridin-3-yl)-1,2-thiazole-4-carboxamide], for which the IC50 in experiment [1] is 0.74 µM; in experiment [2], 0.33 µM.
The like results for `Cc1nsc(Nc2cnc(C(F)(F)F)cn2)c1C(=O)Nc1ccc(N(C)C)c(OCCCN(C)CC(F)(F)F)c1` [Example 299, N-[4-(dimethylamino)-3-{3-[methyl(2,2,2-trifluoroethyl)amino]propoxy}phenyl]-3-methyl-5-{[5-(trifluoromethyl)pyrazin-2-yl]amino}-1,2-thiazole-4-carboxamide] were, in that order, 0.19 µM and 0.26 µM.
The like results for `Cc1nsc(Nc2cnc(C(F)(F)F)cn2)c1C(=O)Nc1ccc(N(C)C)c(OCCCN(C)CCC(F)(F)F)c1` [Example 300, N-[4-(dimethylamino)-3-{3-[methyl(3,3,3-trifluoropropyl)amino]propoxy}phenyl]-3-methyl-5-{[5-(trifluoromethyl)pyrazin-2-yl]amino}-1,2-thiazole-4-carboxamide] were, in that order, 2 µM and 0.55 µM.
The like results for `Cc1nsc(Nc2cnc(C(F)(F)F)cn2)c1C(=O)Nc1ccc(F)c(OCCCN(C)CC(F)F)c1` [Example 301, N-(3-{3-[(2,2-difluoroethyl)(methyl)amino]propoxy}-4-fluorophenyl)-3-methyl-5-{[5-(trifluoromethyl)pyrazin-2-yl]amino}-1,2-thiazole-4-carboxamide] were, in that order, 0.81 µM and 0.36 µM.
For `Cc1nsc(Nc2cnc(C(F)(F)F)cn2)c1C(=O)Nc1ccc(F)c(OCCCN(C)CC(F)(F)F)c1` [Example 302, N-(4-fluoro-3-{3-[methyl(2,2,2-trifluoroethyl)amino]propoxy}phenyl)-3-methyl-5-{[5-(trifluoromethyl)pyrazin-2-yl]amino}-1,2-thiazole-4-carboxamide], the IC50 in experiment [1] stood at 0.43 µM; in experiment [2], 0.34 µM.
The like results for `Cc1nsc(Nc2cnc(C(F)(F)F)cn2)c1C(=O)Nc1ccc(F)c(OCCCN(C)CCC(F)(F)F)c1` [Example 303, N-(4-fluoro-3-{3-[methyl(3,3,3-trifluoropropyl)amino]propoxy}phenyl)-3-methyl-5-{[5-(trifluoromethyl)pyrazin-2-yl]amino}-1,2-thiazole-4-carboxamide] were, in that order, 0.032 µM and 0.4 µM.
For `Cc1nsc(Nc2cncc(C(F)(F)F)n2)c1C(=O)Nc1ccc(OC2CCN(CCC(F)(F)F)CC2)nc1` [Example 304, 3-methyl-5-{[6-(trifluoromethyl)pyrazin-2-yl]amino}-N-(6-{[1-(3,3,3-trifluoropropyl)piperidin-4-yl]oxy}pyridin-3-yl)-1,2-thiazole-4-carboxamide] the same measures were 0.09 µM and 0.36 µM.
For `Cc1nsc(Nc2cnc(C(F)(F)F)cn2)c1C(=O)Nc1ccc(OCCNCC(F)F)nc1` [Example 305, N-(6-{2-[(2,2-difluoroethyl)amino]ethoxy}pyridin-3-yl)-3-methyl-5-{[5-(trifluoromethyl)pyrazin-2-yl]amino}-1,2-thiazole-4-carboxamide] the same measures were 0.22 µM and 1.1 µM.
For the compound `Cc1nsc(Nc2cnc(C(F)(F)F)cn2)c1C(=O)Nc1ccc(F)c(OCCCNCC(F)(F)F)c1` [Example 306, N-(4-fluoro-3-{3-[(2,2,2-trifluoroethyl)amino]propoxy}phenyl)-3-methyl-5-{[5-(trifluoromethyl)pyrazin-2-yl]amino}-1,2-thiazole-4-carboxamide], the IC50 turned out to be 0.095 µM in experiment [1] and 0.57 µM in experiment [2].
The like results for `Cc1nsc(Nc2cnc(C(F)(F)F)cn2)c1C(=O)Nc1ccc(F)c(OCCCNCCC(F)(F)F)c1` [Example 307, N-(4-fluoro-3-{3-[(3,3,3-trifluoropropyl)amino]propoxy}phenyl)-3-methyl-5-{[5-(trifluoromethyl)pyrazin-2-yl]amino}-1,2-thiazole-4-carboxamide] were, in that order, 0.38 µM and 0.69 µM.
The like results for `Cc1nsc(Nc2cnc(C(F)(F)F)cn2)c1C(=O)Nc1ccc(F)c(OCC2CCN(CC(F)F)CC2)c1` [Example 308, N-(3-{[1-(2,2-difluoroethyl)piperidin-4-yl]methoxy}-4-fluorophenyl)-3-methyl-5-{[5-(trifluoromethyl)pyrazin-2-yl]amino}-1,2-thiazole-4-carboxamide] were, in that order, 0.051 µM and 0.34 µM.
Take `Cc1nsc(Nc2cnc(C(F)(F)F)cn2)c1C(=O)Nc1ccc(F)c(OCC2CCN(CCF)CC2)c1` [Example 309, N-(4-fluoro-3-{[1-(2-fluoroethyl)piperidin-4-yl]methoxy}phenyl)-3-methyl-5-{[5-(trifluoromethyl)pyrazin-2-yl]amino}-1,2-thiazole-4-carboxamide]: the IC50 came to 0.61 µM in experiment [1] and 0.63 µM in experiment [2].
For `Cc1nsc(Nc2cnc(C(F)(F)F)cn2)c1C(=O)Nc1ccc(F)c(OCC2CCN(CC(F)(F)F)CC2)c1` [Example 310, N-(4-fluoro-3-{[1-(2,2,2-trifluoroethyl)piperidin-4-yl]methoxy}phenyl)-3-methyl-5-{[5-(trifluoromethyl)pyrazin-2-yl]amino}-1,2-thiazole-4-carboxamide] the same measures were 0.049 µM and 0.23 µM.
The like results for `Cc1nsc(Nc2cnc(C(F)(F)F)cn2)c1C(=O)Nc1ccc(F)c(OCC2CCN(CCC(F)(F)F)CC2)c1` [Example 311, N-(4-fluoro-3-{[1-(3,3,3-trifluoropropyl)piperidin-4-yl]methoxy}phenyl)-3-methyl-5-{[5-(trifluoromethyl)pyrazin-2-yl]amino}-1,2-thiazole-4-carboxamide] were, in that order, 0.48 µM and 0.33 µM.
The like results for `Cc1nsc(Nc2cnc(C(F)(F)F)cn2)c1C(=O)Nc1ccc(OC2CCN(C(CF)CF)C2)nc1` (stereo not shown) [Example 313, N-(6-{[1-(1,3-difluoropropan-2-yl)pyrrolidin-3-yl]oxy}pyridin-3-yl)-3-methyl-5-{[5-(trifluoromethyl)pyrazin-2-yl]amino}-1,2-thiazole-4-carboxamide] were, in that order, 0.055 µM and 0.62 µM.
Consider `Cc1nsc(Nc2cnc(C(F)(F)F)cn2)c1C(=O)Nc1ccc(F)c(OC2CCN(CC(F)F)C2)c1` (stereo not shown) [Example 314, N-(3-{[1-(2,2-difluoroethyl)pyrrolidin-3-yl]oxy}-4-fluorophenyl)-3-methyl-5-{[5-(trifluoromethyl)pyrazin-2-yl]amino}-1,2-thiazole-4-carboxamide], for which the IC50 in experiment [1] came to 0.078 µM; in experiment [2], 0.41 µM.
The like results for `Cc1nsc(Nc2cnc(C(F)(F)F)cn2)c1C(=O)Nc1ccc(F)c(OC2CCN(CC(F)(F)F)C2)c1` (stereo not shown) [Example 315, N-(4-fluoro-3-{[1-(2,2,2-trifluoroethyl)pyrrolidin-3-yl]oxy}phenyl)-3-methyl-5-{[5-(trifluoromethyl)pyrazin-2-yl]amino}-1,2-thiazole-4-carboxamide] were, in that order, 0.06 µM and 0.78 µM.
